# Data: patent US6638542B2, “Reducing appetite in mammals by administering procyanidin and hydroxycitric acid” (Nutricia N.V., priority 2001, dated 2003)
# Test: Appetite reducing effects of coadministered procyanidin and hydroxycitric acid: voluntary food intake, placebo-controlled cross-over study
# Assay type: in vivo, male Wistar rats
# Details: 155 mg hydroxycitric acid per kg rat alone, single intragastric bolus, vs placebo, paired student t, FIG. 2
# Procedure: The appetite suppressive effects of a combination of procyanidin (pine bark extract containing 65 wt. % procyanidin) and hydroxycitric acid (Regulator™ ex HOB Ireland, Dublin, Ireland) was tested in male Wistar rats. In a placebo-controlled cross-over study, either 13 mg procyanidin per kg rat (A), 155 mg hydroxycitric acid per kg rat (B) or 13 mg procyanidin per kg rat and 155 mg hydroxycitric acid per kg rat (C) were administered as a single bolus intragastrically at 30 min before onset of the active (dark) period.
# Subsequently, voluntary food intake was recorded continuously for 48 hours. Following this period, the experiment was repeated as part of the cross-over design (that is, rats which first received the procyanidins now received the placebo and vice versa).
# Results are shown as absolute cumulative food intake after 1,2 and 4 hours (see FIG. 2). Statistical analysis (paired student t) was made of the data.
smiles,measurement,setting,value
O=C(O)CC(O)(C(=O)O)C(O)C(=O)O (centres unmarked) [hydroxycitric acid],"absolute cumulative food intake after 1, 2 and 4 hours",,did not result in a significant decrease
same,"absolute cumulative food intake after 1, 2 and 4 hours",listed as HCA,did not show any significant appetite reducing effect
